The results in this text go back to patent US20230416329A1, “A PEPTIDE WITH DISULFIDE BONDS AND INHIBITORY ACTIVITY AGAINST SERINE PROTEASES, DERIVED HYBRID PEPTIDES THEREOF, AND USES THEREOF” (INSTITUTE OF MATERIA MEDICA , CHINESE ACADEMY OF MEDICAL …, priority 2020, published 2023).

The target of one data set is chymotrypsin (Bos taurus, UniProt P00766). The data set is described as follows: in vitro. The following applies: isolated enzyme chymotrypsin, pH 7.8, Remaining peak area (%)/chymotrypsin. In short, it runs like this: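 RP-HPLC peak area tracked intact peptide after 37 °C digestion with chymotrypsin (0.05 μg/μL solution, 5 min preincubation). Samples were withdrawn at 1.5-60.0 min and stopped with 10% TFA.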

In another data set the target is T1, trypsin (Bos taurus, UniProt P00760).
T1 sequence (P00760 24-246): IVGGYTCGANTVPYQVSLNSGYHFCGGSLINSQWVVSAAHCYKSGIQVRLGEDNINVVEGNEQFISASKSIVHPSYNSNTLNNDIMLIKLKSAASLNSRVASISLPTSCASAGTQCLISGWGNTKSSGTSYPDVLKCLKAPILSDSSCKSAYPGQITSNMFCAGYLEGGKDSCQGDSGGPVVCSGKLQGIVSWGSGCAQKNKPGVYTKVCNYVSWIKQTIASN
The data set is described as follows: in vitro. In outline:
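Remaining RP-HPLC peak area tracks undigested peptide over time. Samples were quenched with 10% TFA at time points between 1.5 and 60 min during 37 °C digestion. Trypsin was added from a 0.05 μg/μL solution after 5 min of thermal equilibration.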

The target of the next data set is NEP24.11 (Homo sapiens, UniProt P08473). In words: Tolerance of GLP-1 and its analogues to NEP24.11 (RP-HPLC remaining peak area). In kind it is in vitro ADME. The following applies: for Remaining peak area (%)/NEP24.11: 0.0 h; for Remaining peak area (%)/NEP24.11 / remaining at 0.5 h, 30 μM / remaining at 2 h, 30 μM / remaining at 4 h, 30 μM / remaining at 8 h, 30 μM: peptide 30 μM, NEP24.11 1.0 ng/μL, 37° C.; for remaining at 0.5 h, 30 μM / remaining at 2 h, 30 μM / remaining at 4 h, 30 μM / remaining at 8 h, 30 μM: isolated NEP24.11 enzyme in buffer; for remaining at 0.5 h, 30 μM: pH 7.4, 0.5 h; for remaining at 2 h, 30 μM: pH 7.4, 2.0 h; for remaining at 4 h, 30 μM: pH 7.4, 4.0 h; for remaining at 8 h, 30 μM: pH 7.4, 8.0 h, read-out: Remaining peak area (%)/NEP24.11. The procedure: (§1) Mix by centrifugation at 8000 rpm for 30 seconds.
Arrange a certain volume of 0.04 μg/μL NEP24.11 enzyme solution in another sterile EP.

Another data set addresses DPP-IV (Homo sapiens, UniProt P27487). The data set is described as follows: Tolerance of GLP-1 and its analogues to DPP-IV (RP-HPLC remaining peak area). In kind it is in vitro ADME. The following applies: peptide 25 μM, DPP-IV 0.5 ng/μL, 37° C.; for Remaining peak area (%)/DPP-IV: 0.0 h; for remaining at 0.5 h, 25 μM / remaining at 2 h, 25 μM / remaining at 4 h, 25 μM / remaining at 8 h, 25 μM / remaining at 12 h, 25 μM: isolated DPP-IV enzyme in buffer, pH 8. The procedure:
as §1
(2) Arrange a certain volume of 0.005 μg/μL DPP-IV solution in another sterile EP.

The mark [1] stands for this setting: isolated enzyme trypsin, pH 7.8.

NEP24.11, sequence (P08473 whole entry): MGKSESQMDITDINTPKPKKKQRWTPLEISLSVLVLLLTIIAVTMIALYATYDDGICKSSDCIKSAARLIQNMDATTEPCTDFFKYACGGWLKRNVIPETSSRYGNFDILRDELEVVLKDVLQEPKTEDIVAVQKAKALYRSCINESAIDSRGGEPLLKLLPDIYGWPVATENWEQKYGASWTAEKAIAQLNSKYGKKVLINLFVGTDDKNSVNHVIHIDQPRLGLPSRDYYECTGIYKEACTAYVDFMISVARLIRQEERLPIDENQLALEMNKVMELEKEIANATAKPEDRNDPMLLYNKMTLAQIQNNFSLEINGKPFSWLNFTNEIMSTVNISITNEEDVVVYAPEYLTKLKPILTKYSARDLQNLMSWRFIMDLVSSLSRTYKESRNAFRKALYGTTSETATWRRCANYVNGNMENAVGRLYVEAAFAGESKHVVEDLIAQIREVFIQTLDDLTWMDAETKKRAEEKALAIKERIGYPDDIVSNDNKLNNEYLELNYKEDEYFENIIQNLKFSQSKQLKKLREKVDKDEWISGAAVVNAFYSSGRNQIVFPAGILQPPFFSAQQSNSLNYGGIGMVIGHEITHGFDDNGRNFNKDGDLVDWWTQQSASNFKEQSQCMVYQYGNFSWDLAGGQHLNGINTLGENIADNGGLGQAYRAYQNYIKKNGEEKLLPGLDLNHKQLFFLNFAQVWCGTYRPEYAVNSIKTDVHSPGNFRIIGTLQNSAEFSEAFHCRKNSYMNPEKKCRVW
DPP-IV, sequence (P27487 whole entry, species assumed): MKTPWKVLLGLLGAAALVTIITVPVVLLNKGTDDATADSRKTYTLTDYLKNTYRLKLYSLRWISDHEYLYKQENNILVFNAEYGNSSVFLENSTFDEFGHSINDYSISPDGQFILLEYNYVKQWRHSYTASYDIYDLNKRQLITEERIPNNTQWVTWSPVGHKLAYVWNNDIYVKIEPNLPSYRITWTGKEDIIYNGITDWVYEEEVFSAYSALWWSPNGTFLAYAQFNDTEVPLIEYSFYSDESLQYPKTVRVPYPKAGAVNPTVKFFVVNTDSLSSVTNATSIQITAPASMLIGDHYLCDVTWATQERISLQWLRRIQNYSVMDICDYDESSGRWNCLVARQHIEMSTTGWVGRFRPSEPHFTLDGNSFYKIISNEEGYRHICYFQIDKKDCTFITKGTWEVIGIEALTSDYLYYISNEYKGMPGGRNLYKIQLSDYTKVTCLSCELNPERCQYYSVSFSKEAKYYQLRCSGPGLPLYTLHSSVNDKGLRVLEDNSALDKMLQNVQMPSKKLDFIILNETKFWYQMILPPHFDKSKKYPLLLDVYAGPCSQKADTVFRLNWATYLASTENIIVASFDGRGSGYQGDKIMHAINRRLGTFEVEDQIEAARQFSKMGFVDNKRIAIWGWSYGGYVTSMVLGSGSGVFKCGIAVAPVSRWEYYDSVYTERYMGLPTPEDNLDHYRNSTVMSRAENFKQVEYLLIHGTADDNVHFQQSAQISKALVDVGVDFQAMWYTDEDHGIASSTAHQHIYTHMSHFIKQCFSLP

With `CC[C@H](C)[C@H](NC(=O)[C@H](Cc1ccccc1)NC(=O)[C@H](CCC(=O)O)NC(=O)[C@H](CCCCN)NC(=O)[C@H](C)NC(=O)[C@H](C)NC(=O)[C@H](CCC(N)=O)NC(=O)CNC(=O)[C@H](CCC(=O)O)NC(=O)[C@H](CC(C)C)NC(=O)[C@H](Cc1ccc(O)cc1)NC(=O)[C@H](CO)NC(=O)[C@H](CO)NC(=O)[C@@H](NC(=O)[C@H](CC(=O)O)NC(=O)[C@H](CO)NC(=O)[C@@H](NC(=O)[C@H](Cc1ccccc1)NC(=O)[C@@H](NC(=O)CNC(=O)[C@H](CCC(=O)O)NC(=O)[C@H](C)NC(=O)[C@H](Cc1c[nH]cn1)NC(=O)CNC(=O)CNC(=O)[C@H](CCCNC(=N)N)NC(=O)[C@H](CO)NC(=O)[C@H](Cc1ccccc1)NC(=O)[C@H](CCCNC(=N)N)NC(=O)[C@H](CCC(N)=O)NC(=O)CNC(=O)CNC(=O)[C@H](Cc1ccccc1)NC(=O)[C@@H]1CSSC[C@H](N)C(=O)NCC(=O)N[C@@H](CCCNC(=N)N)C(=O)N[C@@H](C)C(=O)N[C@@H]([C@@H](C)O)C(=O)N[C@@H](CCCCN)C(=O)N[C@@H](CO)C(=O)N[C@@H]([C@@H](C)CC)C(=O)N2CCC[C@H]2C(=O)N2CCC[C@H]2C(=O)N[C@@H]([C@@H](C)CC)C(=O)N1)[C@@H](C)O)[C@@H](C)O)C(C)C)C(=O)N[C@@H](C)C(=O)N[C@@H](Cc1c[nH]c2ccccc12)C(=O)N[C@@H](CC(C)C)C(=O)N[C@H](C(=O)N[C@@H](CCCCN)C(=O)NCC(=O)N[C@@H](CCCNC(=N)N)C(=O)NCC(=O)NCC(=O)N[C@@H](CCCCN)C(=O)O)C(C)C` [BT9-N-GLP-1], on chymotrypsin, the remaining at 0.025 h, 60 μM stood at 77.1 ± 1.8%; the remaining at 0.05 h, 60 μM is 57.7 ± 2%; the remaining at 0.075 h, 60 μM stood at 50.4 ± 3.2%; the remaining at 0.1 h, 60 μM was determined as 41.2 ± 3.1%. Also, the remaining at 0.15 h, 60 μM at chymotrypsin came to 26 ± 2.9%. Besides, at trypsin (setting [1]), the remaining at 0.025 h, 60 μM was found to be 90.8 ± 0.5%; the remaining at 0.05 h, 60 μM was determined as 90.4 ± 2%; the remaining at 0.075 h, 60 μM was determined as 91 ± 2.1%; the remaining at 0.1 h, 60 μM came to 91.1 ± 3%. Moreover, on trypsin (setting [1]), the remaining at 0.15 h, 60 μM came to 90.9 ± 3.1%; the remaining at 0.25 h, 60 μM amounted to 86.6 ± 3.5%; the remaining at 0.5 h, 60 μM was 86.5 ± 3.5%; the remaining at 1 h, 60 μM was 74.4 ± 2.6%. Further, at NEP24.11, the “Remaining peak area (%)/NEP24.11” value was 100.0 ± 0.0%; the remaining at 0.5 h, 30 μM is 76.4 ± 1.1%; the remaining at 2 h, 30 μM was 63.5 ± 1.9%; the remaining at 4 h, 30 μM came out at 47 ± 4.3%. In addition, the remaining at 8 h, 30 μM at NEP24.11 is 41.8 ± 2.7%. Besides, at DPP-IV, the “Remaining peak area (%)/DPP-IV” value is recorded as 100.0 ± 0.0%; the remaining at 0.5 h, 25 μM was determined as 92.5 ± 1.5%; the remaining at 2 h, 25 μM stood at 88 ± 1.8%; the remaining at 4 h, 25 μM was found to be 79.4 ± 2.2%. On DPP-IV, the remaining at 8 h, 25 μM is 76.1 ± 1.4% and the remaining at 12 h, 25 μM was determined as 71.2 ± 2.1%.
For `CC[C@H](C)[C@H](NC(=O)[C@H](Cc1ccccc1)NC(=O)[C@H](CCC(=O)O)NC(=O)[C@H](CCCCN)NC(=O)[C@H](C)NC(=O)[C@H](C)NC(=O)[C@H](CCC(N)=O)NC(=O)CNC(=O)[C@H](CCC(=O)O)NC(=O)[C@H](CC(C)C)NC(=O)[C@H](Cc1ccc(O)cc1)NC(=O)[C@H](CO)NC(=O)[C@H](CO)NC(=O)[C@@H](NC(=O)[C@H](CC(=O)O)NC(=O)[C@H](CO)NC(=O)[C@@H](NC(=O)[C@H](Cc1ccccc1)NC(=O)[C@@H](NC(=O)CNC(=O)[C@H](CCC(=O)O)NC(=O)[C@H](C)NC(=O)[C@H](Cc1c[nH]cn1)NC(=O)CNC(=O)CNC(=O)[C@@H](NC(=O)[C@@H]1CCCN1C(=O)[C@@H](NC(=O)CNC(=O)CNC(=O)[C@H](CCCNC(=N)N)NC(=O)[C@H](CO)NC(=O)[C@H](Cc1ccccc1)NC(=O)[C@H](CCCNC(=N)N)NC(=O)[C@H](CCC(N)=O)NC(=O)CNC(=O)CNC(=O)[C@@H]1CSSC[C@H](N)C(=O)N2CCC[C@H]2C(=O)N[C@@H](CCCCN)C(=O)N[C@@H]([C@@H](C)CC)C(=O)N[C@@H](CC(C)C)C(=O)N[C@@H](CCC(N)=O)C(=O)N[C@@H](CCCNC(=N)N)C(=O)N1)[C@@H](C)CC)[C@@H](C)CC)[C@@H](C)O)[C@@H](C)O)C(C)C)C(=O)N[C@@H](C)C(=O)N[C@@H](Cc1c[nH]c2ccccc12)C(=O)N[C@@H](CC(C)C)C(=O)N[C@H](C(=O)N[C@@H](CCCCN)C(=O)NCC(=O)N[C@@H](CCCNC(=N)N)C(=O)NCC(=O)NCC(=O)N[C@@H](CCCCN)C(=O)O)C(C)C` [DNT-GLP-1], at chymotrypsin, the remaining at 0.025 h, 60 μM worked out at 97 ± 5.7%; the remaining at 0.05 h, 60 μM was found to be 89.8 ± 0.9%; the remaining at 0.075 h, 60 μM was 85.1 ± 4.4%; the remaining at 0.1 h, 60 μM stood at 84.3 ± 2%. Also, the remaining at 0.15 h, 60 μM on chymotrypsin was found to be 78.2 ± 2.1%. For the same molecule, on trypsin, the “stability towards trypsin hydrolysis (in words)” value is given as “completely degraded”. Besides, at trypsin (setting [1]), the remaining at 0.025 h, 60 μM turned out to be 68.3 ± 5.9%; the remaining at 0.05 h, 60 μM was found to be 44.9 ± 3.5%; the remaining at 0.075 h, 60 μM came out at 21.2 ± 1.1%; the remaining at 0.1 h, 60 μM came to 0%. Moreover, the remaining at 0.15 h, 60 μM at trypsin (setting [1]) was 0%. Further, on NEP24.11, the “Remaining peak area (%)/NEP24.11” value is 100.0 ± 0.0%; the remaining at 0.5 h, 30 μM is 82.2 ± 1.3%; the remaining at 2 h, 30 μM was 79.1 ± 1.7%; the remaining at 4 h, 30 μM amounted to 77.9 ± 4.2%. The remaining at 8 h, 30 μM at NEP24.11 was found to be 67.8 ± 4.7%. Further, at DPP-IV, the “Remaining peak area (%)/DPP-IV” value stood at 100.0 ± 0.0%; the remaining at 0.5 h, 25 μM was 108 ± 9.3%; the remaining at 2 h, 25 μM came out at 108 ± 1.7%; the remaining at 4 h, 25 μM worked out at 105 ± 2.3%. For the same molecule, on DPP-IV, the remaining at 8 h, 25 μM was found to be 105 ± 1.7% and the remaining at 12 h, 25 μM was determined as 97.4 ± 2.1%.
With `CC[C@H](C)[C@H](NC(=O)[C@H](Cc1ccccc1)NC(=O)[C@H](CCC(=O)O)NC(=O)[C@H](CCCCN)NC(=O)[C@H](C)NC(=O)[C@H](C)NC(=O)[C@H](CCC(N)=O)NC(=O)CNC(=O)[C@H](CCC(=O)O)NC(=O)[C@H](CC(C)C)NC(=O)[C@H](Cc1ccc(O)cc1)NC(=O)[C@H](CO)NC(=O)[C@H](CO)NC(=O)[C@@H](NC(=O)[C@H](CC(=O)O)NC(=O)[C@H](CO)NC(=O)[C@@H](NC(=O)[C@H](Cc1ccccc1)NC(=O)[C@@H](NC(=O)CNC(=O)[C@H](CCC(=O)O)NC(=O)[C@H](C)NC(=O)[C@H](Cc1c[nH]cn1)NC(=O)CNC(=O)CNC(=O)CNC(=O)CNC(=O)CNC(=O)CNC(=O)CN)[C@@H](C)O)[C@@H](C)O)C(C)C)C(=O)N[C@@H](C)C(=O)N[C@@H](Cc1c[nH]c2ccccc12)C(=O)N[C@@H](CC(C)C)C(=O)N[C@H](C(=O)N[C@@H](CCCCN)C(=O)NCC(=O)N[C@@H](CCCNC(=N)N)C(=O)NCC(=O)O)C(C)C` [G7-GLP-1], on chymotrypsin, the remaining at 0.025 h, 60 μM amounted to 72.1 ± 11.5%; the remaining at 0.05 h, 60 μM came out at 45.8 ± 6.5%; the remaining at 0.075 h, 60 μM came out at 38 ± 2.3%; the remaining at 0.1 h, 60 μM worked out at 29.3 ± 4.7%. Also, the remaining at 0.15 h, 60 μM on chymotrypsin stood at 11.3 ± 3.2%. In addition, at trypsin (setting [1]), the remaining at 0.025 h, 60 μM was 21 ± 2.9%; the remaining at 0.05 h, 60 μM came out at 17.2 ± 0.8%; the remaining at 0.075 h, 60 μM stood at 9.8 ± 2.9%; the remaining at 0.1 h, 60 μM was 4.5 ± 0.8%. In addition, the remaining at 0.15 h, 60 μM on trypsin (setting [1]) stood at 3.4 ± 1.7%. Further, at NEP24.11, the “Remaining peak area (%)/NEP24.11” value came to 100.0 ± 0.0%; the remaining at 0.5 h, 30 μM amounted to 63 ± 5.1%; the remaining at 2 h, 30 μM is 27.2 ± 7.2%; the remaining at 4 h, 30 μM came to 11.5 ± 0.3%. Besides, the remaining at 8 h, 30 μM at NEP24.11 worked out at 0%. Further, the “degradation by NEP24.11 (in words)” value at NEP24.11 (after 8 hours) is given as “almost completely degraded”. Further, at DPP-IV, the “Remaining peak area (%)/DPP-IV” value was 100.0 ± 0.0%; the remaining at 0.5 h, 25 μM worked out at 42.1 ± 15.5%; the remaining at 2 h, 25 μM came out at 51.1 ± 6.5%; the remaining at 4 h, 25 μM came out at 55.3 ± 14.4%. Further, on DPP-IV, the remaining at 8 h, 25 μM was determined as 42.3 ± 9.6% and the remaining at 12 h, 25 μM is 34.5 ± 2.1%. At DPP-IV (12 hours), the “remaining prototype peptide after DPP-IV treatment” value was “about 34.5%”.
